This is an account of results in patent publication US6566359B1, “2,4,6-trimethyl-1,4-dihydro-pyridine-3,5-dicarboxylic acid esters as neuroprotective drugs” (Board of Supervisors of Louisiana State University and …, priority 2002, dated 2003).

Each structure is given as a SMILES string. “And” between values parts separate entries of the source, which are not always exact repeats. Equal entries are not always repeated.

The target in test [1] is intracellular type PAF receptor (rat brain microsomal preparations) (Rattus norvegicus, UniProt P46002). As to the kind of experiment: Competition for 3H-PAF binding to rat brain cortex microsomal membranes. As to conditions: rat brain cortex microsomal preparation. As to the method: (§1) Binding studies were performed on subcellular fractions of tissues obtained from rat brain cortex, according to procedures described in V. Marcheselli et al., “Distinct platelet-activating factor binding sites in synaptic endings and in intracellular membranes of rat cerebral cortex,” J. biol. Chem., vol. 265, pp. 9140-9145 (1990). Freshly dissected brain tissues were homogenized in ice-cold buffer (50 mM Tris-HCl, 2 mM EGTA, 5 mM PMSF, 250 mM sucrose, 7.4 pH). Subcellular fractions were obtained by differential centrifugation. The microsomal fraction was sedimented after 100,000×g for 1 hour centrifugation. In addition, three cell lines from Chinese hamster ovary (CHO) with varying expression of PAF receptors, CHO-A, CHO-B, and CHO-C cells (from Dr. Takao Shiizu, University of Tokyo, Tokyo, Japan) were cultured to the fourth-passage cells. These cells were cultured to confluence, then detached from their culturing flasks, and pelleted by rapid centrifugation (3,000 rpm, 10 min). Cellular pellets were homogenized in ice-cold buffer as described above. Freshly obtained microsomal fractions or CHO cellular homogenates were utilized for saturation, displacement, and competition studies using ^3H-PAF as the hot ligand, unlabeled-PAF to detect non-specific binding, and a LAU-0900 series compound to displace by competition ^3H-PAF bound to a receptor.

Test [2] has as its target T1, cell-surface-type PAF receptor over-expressed in CHO-B cells (Cavia porcellus, UniProt P21556).
T1 construct: expressed in transfected cells; host or cells: Chinese hamster ovary cells: CHO-B (high expression) and CHO-A (mild expression), used as cell homogenates
As to the kind of experiment: Competition for 3H-PAF binding to CHO-B cell homogenates. As to the method: as §1
(§2) See B. Liu et al., “Implication of protein kinase C alpha in PAF-stimulated phospholipase D Activation in Chinese hamster ovary (CHO) cells expressing PAF receptor,” Biochem. Biophys. Res. Commun., vol.214, pp.418-423 (1995). […] Both the constants of inhibition (KI) and 50% of inhibitory activity (IC50) were significant at a low concentration of LAU-0903.

The target in test [3] is T2, PAF receptor in CHO-A cells (moderately exp PAF-R) (Cavia porcellus, UniProt P21556).
T2 construct: expressed in transfected cells; host or cells: Chinese hamster ovary cells: CHO-B (high expression) and CHO-A (mild expression), used as cell homogenates
Description: Competition for 3H-PAF binding to CHO-A cell homogenates. As to the method: Binding studies were performed on subcellular fractions of tissues obtained from rat brain cortex, according to procedures described in V. Marcheselli et al., “Distinct platelet-activating factor binding sites in synaptic endings and in intracellular membranes of rat cerebral cortex,” J. biol. Chem., vol. 265, pp. 9140-9145 (1990). Freshly dissected brain tissues were homogenized in ice-cold buffer (50 mM Tris-HCl, 2 mM EGTA, 5 mM PMSF, 250 mM sucrose, 7.4 pH). Subcellular fractions were obtained by differential centrifugation. The microsomal fraction was sedimented after 100,000×g for 1 hour centrifugation. In addition, three cell lines from Chinese hamster ovary (CHO) with varying expression of PAF receptors, CHO-A, CHO-B, and CHO-C cells (from Dr. Takao Shiizu, University of Tokyo, Tokyo, Japan) were cultured to the fourth-passage cells. These cells were cultured to confluence, then detached from their culturing flasks, and pelleted by rapid centrifugation (3,000 rpm, 10 min). Cellular pellets were homogenized in ice-cold buffer as described above. Freshly obtained microsomal fractions or CHO cellular homogenates were utilized for saturation, displacement, and competition studies using ^3H-PAF as the hot ligand, unlabeled-PAF to detect non-specific binding, and a LAU-0900 series compound to displace by competition ^3H-PAF bound to a receptor. […]

Test [4] has as its system CHO-C cells (do not exp PAF-R). As to the kind of experiment: Competition for 3H-PAF binding to CHO-C cell homogenates. The method, then:
as §1, §2

The test system of test [5] is human COX-2 promoter. As to the kind of experiment: PAF-induced COX-2 promoter-luciferase transcription in CV-1 cells. The class given is cell-based. As to conditions: 100 nM compound, 100 nM PAF. The method, then:
(§3) To test the ability of LAU-0900 series compounds to inhibit COX-2 expression, a kidney cell line was transiently transfected with the 830-base-pair human COX-2 promoter construct (proximal to the transcription start site) fused to the luciferase gene as a reporter as described below.
(§4) Transfection of CV-1 cells with human COX-2promoterfused with LUC: C V-1 Cells (African green monkey kidney cell line, ATCC # CCL-17) were grown in DMEM-F12 (GIBCO-BRL, Rockville, Md.) supplemented with 10% FBS (fetal bovine serum) in 6-well plates. At 80% confluence, the cells were transfected with 10 μg human COX-2 promoter-LUC construct (containing 830 base pairs of the human COX-2 promoter (donated by Dr. Stephen Prescot, Huntsman Cancer Institute, Salt Lake City, Utah) using a liposomal transfection reagent (DOTAP, Roche Diagnostics, Gmbh, Mannheim, Germany). Promoterless β-galactosidase construct (Promega, Madison, Wis.) was co-transfected to assess transfection efficiency. Three hours after transfection at 37° C., the medium was removed, and the cells were washed with phonsphate-buffered saline solution, pH 7.2 (PBS; Gibco-BRL, Rockville Md. The plates were further incubated at 37° C. in complete medium DMEM-F12 with 10% FBS for about 8-10 hr. Before the addition of the inducers of COX-2, PAF (100 nM) or IL-1β (10 ng/ml), the CV-1-transfected cells were serum-starved for 8 hr at 37° C. After the addition of the inducers, the cells were incubated for 8-10 hr at 37° C. Then the medium was removed, the cells were washed with PBS, harvested, and frozen at −80° C. until used for assays.
(§5) To test the effectiveness of the LAU-0900 series compounds, the transfected cells were treated for 1 hr with 100 nM of various LAU-0900 series compounds before the addition of the inducers (either PAF or IL-1β, and the LAU-0900 compound remained in the medium throughout the incubation period.
(§6) Luciferase assay of transfected CV-1 cells: Frozen cells were homogenized in 300 μl luciferase assay buffer (“ALL”, Analytical Luminescence Laboratory, San Diego, Calif.), and cellular debris was collected as a pellet by centrifugation at 2800×g for 20 min at 4° C. Supernatants (20-30 μl) were normalized to 1 μg/ml of total protein content, and were mixed with 70-80 μl ALL buffer. Reactions were initiated by injection of 100 μl of 1 mM luciferin (Sigma Chemical Co., St. Louis, Mo.). The relative light units were determined by using an ALL luminometer that recorded over 20-second intervals.

Test [6] deals with human COX-2 promoter. As to the kind of experiment: IL-1β-induced COX-2 promoter-luciferase transcription in CV-1 cells. The class given is cell-based. As to conditions: 100 nM compound, 10 nM IL-1β. The method, then:
as §3, §4, §5, §6

For a further test, the system named is COX-2 mRNA. As to the kind of experiment: COX-2 mRNA expression after cryogenic injury (vasogenic cerebral edema), Northern blot. The class given is in vivo, Sprague-Dawley rats. As to conditions: rat. The method, then:
Brain COX-2 gene expression is known to be enhanced as a result of injury as well as by seizures (Marcheselli and Bazan, 1996), and PAF receptors are involved in COX-2 expression (Bazan et al, 1994). To further test the LAU-0900 series compounds as PAF antagonists, the compounds were tested in an in vivo model for the potential blocking of injury-induced COX-2 induction. Adult Sprague-Dawley rats, 175 to 250 g body weight, were purchased from a commercial breeder (Charles River Laboratories, Wilmington, Mass.). One group of four rats received an intra-cerebroventricular injection of LAU-0903 (10 mg/kg in DMSO as a vehicle), 15 min before the generation of cerebral edema. Another group of four rats received an intraperitoneal injection of desxmethasone every 8 hr for a period of 24 hr prior to injury. Animals were immobilized by ether anesthesia, and vasogenic cerebral edema was generated by the application of a liquid nitrogen-cooled probe for 1 min on the parietal region of the skull. The rats were allowed to recover for either 2 or 6 hr before being decapitated to sample the brain. Total brain tissues were obtained, and total-RNA was extracted. The RNA was then assayed by Northern blot analysis for COX-2 mRNA. […] Autoradiography or phosphorimage quantification was performed.

A short description of test [7]: Evans Blue accumulation in brain cortex in vasogenic cerebral edema. In kind it is in vivo, rat. As to conditions: LAU-0903 30 μg/kg intra-ventricularly 15 min before injury; dexamethasone 6.2 μg/kg i.p. every 8 hr for 24 hr; 2 hr and 12 hr after injury.
Test [8] can be described thus: Middle cerebral artery occlusion (MCA-O) stroke model, infarct volume by TTC. The class given is in vivo, C57BL/6 mice. As to conditions: 30 mg/kg 1 hr after reperfusion following 1 hr of MCA-O.
A short description of test [9]: MCA-O with 21 days reperfusion, Cresil-Violet histology. The class given is in vivo, C57-bl/6 mice. As to conditions: 30 mg/kg i.p. once 1 hr after onset of reperfusion. As to the method:
In a second group of experiments, C57-bl/6 mice were treated with either a sham procedure, or with 1 hr with MCA-O followed by a reperfusion period of 21 days. Cresil-violet staining was used to assess brain damage in brain slices obtained as above. […] (Data not shown.). […] (Data not shown).
In a third set of experiments, the MCA-O treated mice were injected once with the LAU-0900 series compounds (LAU-0901, LAU-0904, and LAU-0911; at 30 mg/kg) or vehicle 1 hr after the onset of reperfusion. The LAU-0900 compounds were solubilized in 45% 2-hydroxypropyl-β-cyclodextrine (Sigma Chemical Co.), and delivered intraperitoneally. The mice were reperfused for 21 days, and killed. Coronal sections of mouse brains were processed for histology, and stained with Cresil-Violet. Sections from individual animals were analyzed, with pictures of the right side (infarcted) of the brain compared to the left side, which show almost no damage.
(Data not shown). […] Almost normal morphology was found in the brains of the LAU-0900-treated animals, indicating a high degree of protection. (Data not shown), even though administered 1 hr after the initiation of reperfusion.

T1 sequence (P21556 whole entry): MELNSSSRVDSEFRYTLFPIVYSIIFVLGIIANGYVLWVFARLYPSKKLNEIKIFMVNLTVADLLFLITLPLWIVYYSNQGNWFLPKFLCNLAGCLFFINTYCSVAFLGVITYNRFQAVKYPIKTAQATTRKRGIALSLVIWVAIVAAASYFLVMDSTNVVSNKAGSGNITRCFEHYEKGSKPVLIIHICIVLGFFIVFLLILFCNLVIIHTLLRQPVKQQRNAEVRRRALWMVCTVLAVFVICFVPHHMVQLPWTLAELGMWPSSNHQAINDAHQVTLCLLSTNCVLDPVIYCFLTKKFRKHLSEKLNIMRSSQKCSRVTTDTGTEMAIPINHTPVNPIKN
T2 sequence (P21556 whole entry): as above
Sequence of intracellular type PAF receptor (rat brain microsomal preparations) (P46002 whole entry): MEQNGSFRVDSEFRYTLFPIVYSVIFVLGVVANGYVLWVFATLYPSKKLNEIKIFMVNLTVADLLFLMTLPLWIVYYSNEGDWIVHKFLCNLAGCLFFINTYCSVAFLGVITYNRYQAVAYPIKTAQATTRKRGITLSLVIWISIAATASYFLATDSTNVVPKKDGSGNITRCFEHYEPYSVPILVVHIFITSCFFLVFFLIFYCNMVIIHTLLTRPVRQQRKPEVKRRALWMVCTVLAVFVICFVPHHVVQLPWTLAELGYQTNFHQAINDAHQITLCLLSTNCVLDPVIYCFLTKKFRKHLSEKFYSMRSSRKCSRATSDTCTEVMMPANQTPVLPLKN

Consider `COC(=O)C1=C(C)NC(C)=C(C(=O)OCCCSc2ccc(-n3ccnc3)cc2)C1C` (stereo not shown) [LAU-0903, 2,4,6-Trimethyl-1,4-dihydro-pyridine-3,5-dicarboxylic acid 5-[3-(imidazol-1-yl-phenylsulphanyl)]-propyl-1-ester 3-methyl ester], for which the “Competitive activity at 3H-PAF binding sites (curve profile)” value in test [1] is reported as “competitive activity at both binding sites”. Besides, in test [2] (CHO-B cell homogenates), the “Significance of 3H-PAF displacement” value is reported as “significant displacement”. Moreover, the concentration for half-maximal inhibition (IC50) (as a rule, the concentration that inhibits the measured activity by half) was ~0.0538 nM and 0.0538 nM in [2] (CHO-B homogenates (heavily overexpress PAF-R)); “No displacement” in test [3] (CHO-A homogenates (moderately express PAF-R)); “No displacement” in test [4] (CHO-C homogenates (do not express PAF-R)). Besides, the KI result in test [3] (CHO-A homogenates) and in test [4] (CHO-C homogenates) was “No displacement” each time. Also, the “Inhibition of COX-2 transcription induced by PAF” value in the test with human COX-2 promoter [5] is reported as “inhibited”. Moreover, the “Inhibition of COX-2 transcription induced by IL-1β” value with human COX-2 promoter [6] is “inhibited”. Also, in the test on COX-2 mRNA (10 mg/kg intra-cerebroventricular 15 min before injury), the “Inhibition of cryogenically induced COX-2 mRNA” value is listed as “more than 50%”. Moreover, the “Duration of COX-2 mRNA inhibition after a single injection” value in the test with COX-2 mRNA (10 mg/kg intra-cerebroventricular) is “up to 6 hours”. In test [7], the “Effect on accumulation of Evans Blue in brain cortex” value is on record as “protective effect”.
`COC(=O)C1=C(C)NC(C)=C(C(=O)OCCCOc2cc(OC)c(OC)c(OC)c2)C1C` (stereo not shown) [LAU-0911, 2,4,6-Trimethyl-1,4-dihydro-pyridine-3,5-dicarboxylic acid 5-(3,4,5-trimethoxyphenoxy)-propyl-1-ester 3-methyl ester]: the “Inhibition of COX-2 transcription induced by PAF” value in the test with human COX-2 promoter [5] is recorded as “inhibited”. In addition, in the test with human COX-2 promoter [6], the “Inhibition of COX-2 transcription induced by IL-1β” value is “inhibited”. Further, the “Reduction of infarcted volume” value in [8] was determined as 40%. In addition, the “Protection from brain damage (Cresil-Violet histology)” value in [9] is “significant protection”.
